The record followed here is patent US12209081B2 (Katholieke Universiteit Leuven, priority 2020, dated 2025).

The assay concerns the target mouse TRPM3α2 (mTRPM3) ion channel (Mus musculus (Mouse), UniProt J9SQF3). The assay can be described thus: TRPM3 ion channel driven Ca2+ uptake, Fluo-4 AM assay, mTRPM3alpha2 overexpressing flip-in HEK293 cells stimulated with pregnenolone sulfate. The assay is classed as cell-based. In a few lines:
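Flip-in HEK293 cells loaded with Fluo-4 AM were added to plates holding compound plus 50 μM pregnenolone sulfate in Ca2+-containing Krebs buffer. Fluorescence (ex 485/em 535 nm) read directly after cell addition; % inhibition relative to PS-stimulated vehicle and positive-control inhibitor.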

Setting [1] is: PS (50 μM) stimulated, cpd 001-199.
Setting [2] is: PS (50 μM) stimulated, cpds. 500-599.
[3] abbreviates: PS (50 μM) stimulated, cpds. 400-499.
The mark [4] stands for this setting: PS (50 μM) stimulated, cpds. 667-751.
The mark [5] stands for this setting: PS (50 μM) stimulated, cpds. 608-666.

mouse TRPM3α2 (mTRPM3) ion channel, sequence (J9SQF3 other isoform, or with tags, fused parts or gaps): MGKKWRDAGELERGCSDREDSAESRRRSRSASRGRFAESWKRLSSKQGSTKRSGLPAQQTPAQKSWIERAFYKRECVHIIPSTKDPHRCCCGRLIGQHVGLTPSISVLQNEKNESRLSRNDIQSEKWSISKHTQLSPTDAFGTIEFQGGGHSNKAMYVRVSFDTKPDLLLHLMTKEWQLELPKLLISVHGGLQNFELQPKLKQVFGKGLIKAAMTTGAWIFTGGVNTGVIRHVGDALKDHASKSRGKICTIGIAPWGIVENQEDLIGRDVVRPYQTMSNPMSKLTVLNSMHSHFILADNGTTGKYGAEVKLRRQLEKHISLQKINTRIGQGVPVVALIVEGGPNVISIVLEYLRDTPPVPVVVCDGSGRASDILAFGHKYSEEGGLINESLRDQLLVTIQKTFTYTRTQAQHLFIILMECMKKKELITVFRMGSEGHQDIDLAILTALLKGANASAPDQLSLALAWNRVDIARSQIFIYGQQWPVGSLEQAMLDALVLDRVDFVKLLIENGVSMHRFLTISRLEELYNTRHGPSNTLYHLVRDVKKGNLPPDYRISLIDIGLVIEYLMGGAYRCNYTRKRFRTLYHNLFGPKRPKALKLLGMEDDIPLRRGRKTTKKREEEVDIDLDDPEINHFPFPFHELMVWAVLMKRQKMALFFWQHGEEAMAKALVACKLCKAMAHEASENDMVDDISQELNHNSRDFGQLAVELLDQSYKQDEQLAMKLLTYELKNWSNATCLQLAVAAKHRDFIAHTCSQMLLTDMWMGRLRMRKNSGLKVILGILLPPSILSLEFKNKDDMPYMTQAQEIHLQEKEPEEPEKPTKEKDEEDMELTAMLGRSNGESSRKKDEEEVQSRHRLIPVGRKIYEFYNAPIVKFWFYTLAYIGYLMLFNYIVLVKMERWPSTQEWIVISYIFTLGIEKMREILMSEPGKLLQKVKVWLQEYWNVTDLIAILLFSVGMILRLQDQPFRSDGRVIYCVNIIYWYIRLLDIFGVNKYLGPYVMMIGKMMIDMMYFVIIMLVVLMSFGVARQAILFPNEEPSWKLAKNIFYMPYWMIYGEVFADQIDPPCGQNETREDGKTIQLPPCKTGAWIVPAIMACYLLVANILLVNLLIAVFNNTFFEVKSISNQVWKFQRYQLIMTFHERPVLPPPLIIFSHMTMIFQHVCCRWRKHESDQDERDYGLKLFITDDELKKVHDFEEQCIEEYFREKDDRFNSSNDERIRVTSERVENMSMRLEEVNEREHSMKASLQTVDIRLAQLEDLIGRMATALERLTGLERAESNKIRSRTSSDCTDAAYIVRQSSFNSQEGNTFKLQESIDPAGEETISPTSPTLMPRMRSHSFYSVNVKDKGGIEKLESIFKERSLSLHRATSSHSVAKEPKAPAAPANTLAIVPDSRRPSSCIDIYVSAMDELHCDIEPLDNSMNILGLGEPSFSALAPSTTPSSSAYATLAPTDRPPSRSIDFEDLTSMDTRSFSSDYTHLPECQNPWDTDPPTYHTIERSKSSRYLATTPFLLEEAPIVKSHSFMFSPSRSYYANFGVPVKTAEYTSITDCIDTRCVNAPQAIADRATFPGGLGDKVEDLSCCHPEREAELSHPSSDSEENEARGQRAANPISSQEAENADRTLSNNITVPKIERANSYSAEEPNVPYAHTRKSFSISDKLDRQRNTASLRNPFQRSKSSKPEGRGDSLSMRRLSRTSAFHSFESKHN

What is called IC50 is the concentration needed to halve the response being measured. Molecule `Cc1oc2ccc(OCc3cccnc3C(F)(F)F)cc2c1C(=O)NC1CCNC1=O` (stereo not shown) [compound 064, 2-methyl-N-(2-oxopyrrolidin-3-yl)-5-((2-(trifluoromethyl)pyridin-3-yl)methoxy)benzofuran-3-carboxamide] gave an IC50 under setting [1] of less than 1 µM.
Consider `Cc1ncc(COc2ccc3oc(C)c(C(=O)NCC(C)(C)F)c3c2)s1` [compound 504, N-(2-fluoro-2-methylpropyl)-2-methyl-5-((2-methylthiazol-5-yl)methoxy)benzofuran-3-carboxamide], for which the IC50 under setting [2] was less than 1 µM.
The molecule `Cc1oc2ccc(OCc3cccnc3C(F)(F)F)cc2c1C(=O)NC1COCC1O` (single isomer, unassigned) [147-Dia 1-En 1, N-(4-hydroxytetrahydrofuran-3-yl)-2-methyl-5-((2-(trifluoromethyl)pyridin-3-yl)methoxy) -benzofuran-3-carboxamide] had a 50% inhibitory concentration (IC50) under setting [1] of less than 1 µM.
On to `Cc1oc2ccc(OCc3cccnc3C(F)(F)F)cc2c1C(=O)NC(C)(CO)CO` [compound 424, N-(1,3-dihydroxy-2-methylpropan-2-yl)-2-methyl-5-((2-(trifluoromethyl)pyridin-3-yl)methoxy)benzofuran-3-carboxamide], for which the concentration for half-maximal inhibition (IC50) under setting [3] was less than 1 µM.
On to `Cc1ncsc1COc1cc(F)c2oc(C)c(C(=O)NC3(C(N)=O)COC3)c2c1` [compound 588, N-(3-carbamoyloxetan-3-yl)-7-fluoro-2-methyl-5-((4-methylthiazol-5-yl)methoxy)benzofuran-3c-arboxamide], for which, under setting [2], the IC50 is less than 1 µM.
As to `Cc1ccc(COc2ccc3oc(C)c(C(=O)NC4CCOC4)c3c2)cn1` (stereo not shown) [compound 033, 2-methyl-5-((6-methylpyridin-3-yl)methoxy)-N-(tetrahydrofuran-3-yl)benzofuran-3-carboxamide], the IC50 under setting [1] is more than 20 µM.
Molecule `Cc1ccc(COc2ccc3oc(C)c(C(=O)N[C@@H](CO)C(N)=O)c3c2)nc1` [compound 700, (S)-N-(1-Amino-3-hydroxy-1-oxopropan-2-yl)-2-methyl-5-((5-methylpyridin-2-yl)methoxy)benzofuran-3-carboxamide] returned an IC50 under setting [4] of less than 1 µM.
As to `Cc1oc2ccc(OCc3cccc(N(C)C)n3)cc2c1C(=O)NC1CCNCC1(F)F` (stereo not shown) [compound 071, N-(3,3-difluoropiperidin-4-yl)-5-((6-(dimethylamino)pyridin-2-yl)methoxy)-2-methylbenzofuran-3-carboxamide], under setting [1], the half-maximal inhibitory concentration (IC50) was less than 1 µM.
Under setting [2], `Cc1ncsc1COc1cc2c(C(=O)NC3CCNCC3(F)F)c(C)oc2cc1F` (single isomer, unassigned) [cpd 572-En 1] had an IC50 of less than 1 µM.
Molecule `Cc1oc2ccc(OCc3ccc[nH]c3=O)cc2c1C(=O)NC1(CO)CCOCC1` [compound 614, N-(4-(hydroxymethyl)tetrahydro-2H-pyran-4-yl)-2-methyl-5-((2-oxo-1,2-dihydropyridin-3-yl)methoxy)benzofuran-3-carboxamide] returned an IC50 under setting [5] of less than 1 µM.
`Cc1oc2ccc(OCc3cccnc3C(F)(F)F)cc2c1C(=O)NC1(CN(C)C)CCC1` [compound 140, N-(1-((dimethylamino)methyl)cyclobutyl)-2-methyl-5-((2-(trifluoromethyl)pyridin-3-yl)methoxy) -benzofuran-3-carboxamide] returned an IC50 under setting [1] of less than 1 µM.
`Cc1ncsc1COc1ccc2oc(C(N)=O)c(C(=O)NC3(CO)CCOCC3)c2c1` [compound 658, N3-(4-(hydroxymethyl)tetrahydro-2H-pyran-4-yl)-5-((4-methylthiazol-5-yl)methoxy)benzofuran-2,3-dicarboxamide] returned a 50% inhibitory concentration (IC50) under setting [5] of more than 20 µM.
In the case of `Cc1oc2ccc(OCc3ccncc3)cc2c1C(=O)N[C@@H](CO)C(N)=O` [compound 716, (S)-N-(1-Amino-3-hydroxy-1-oxopropan-2-yl)-2-methyl-5-(pyridin-4-ylmethoxy)benzofuran-3-carboxamide], the half-maximal inhibitory concentration (IC50) under setting [4] is less than 1 µM.
Under setting [1], `Cc1oc2ccc(OCc3cccnc3C(F)(F)F)cc2c1C(=O)NC1CN(CC(F)(F)F)CC1(F)F` (single isomer, unassigned) [157-En 1, N-(4,4-difluoro-1-(2,2,2-trifluoroethyl)pyrrolidin-3-yl)-2-methyl-5-((2-(trifluoromethyl)pyridin-3-yl)methoxy)benzofuran-3-carboxamide] showed a 50% inhibitory concentration (IC50) of less than 1 µM.
On the same count and under the same terms, as for `Cc1ncsc1COc1ccc2oc(C)c(C(=O)NC3(CO)COC3)c2c1` [compound 142, N-(3-(hydroxymethyl)oxetan-3-yl)-2-methyl-5-((4-methylthiazol-5-yl)methoxy)benzofuran-3-carboxamide], the figure is less than 1 µM.
As for `Cc1ncsc1COc1ccc2oc(C)c(C(=O)NC3(C(=O)N(C)C)COC3)c2c1` [compound 509, N-(3-(dimethylcarbamoyl)oxetan-3-yl)-2-methyl-5-((4-methylthiazol-5-yl)methoxy)benzofuran-3-carboxamide], the concentration for half-maximal inhibition (IC50) under setting [2] was less than 1 µM.
In turn, `Cc1cnc(COc2ccc3oc(C)c(C(=O)NC4CCNCC4(F)F)c3c2)cn1` (single isomer, unassigned) [cpd 554-En 2] gave an IC50 under setting [2] of more than 20 µM.
For the molecule `Cc1ncsc1COc1ccc2oc(C)c(C(=O)NC3(CO)CCOCC3)c2c1` [compound 054, N-(4-(hydroxymethyl)tetrahydro-2H-pyran-4-yl)-2-methyl-5-((4-methylthiazol-5-yl)methoxy)-benzofuran-3-carboxamide], the IC50 under setting [1] was less than 1 µM.
Consider `Cc1ncc(COc2ccc3oc(C)c(C(=O)NC(CO)c4nc5ccccc5[nH]4)c3c2)s1` (single isomer, unassigned) [cpd 401-En 2], for which the half-maximal inhibitory concentration (IC50) under setting [3] lay in the range of 1 to 20 µM.
On the same count and under the same terms, as for `Cc1ncsc1COc1ccc2oc(C)c(C(=O)NC3(C(N)=O)CC3)c2c1` [compound 477, N-(1-carbamoylcyclopropyl)-2-methyl-5-((4-methylthiazol-5-yl)methoxy)benzofuran-3-carboxamide], the figure is less than 1 µM.
The molecule `Cc1oc2ccc(OCc3ncccn3)cc2c1C(=O)NC1CCNCC1(F)F` (single isomer, unassigned) [cpd 559-En 1] yielded a half-inhibitory concentration (IC50) under setting [2] of 1 to 20 µM.
Under setting [1], `Cc1csc(COc2ccc3oc(C)c(C(=O)NC4CCNC4=O)c3c2)n1` (stereo not shown) [compound 043, 2-methyl-5-((4-methylthiazol-2-yl)methoxy)-N-(2-oxopyrrolidin-3-yl)benzofuran-3-carboxamide] gave an IC50 of less than 1 µM.
As for `Cc1oc2ccc(OCc3cccnc3C(F)(F)F)cc2c1C(=O)NC1(CO)CCC1` [compound 117, N-(1-(hydroxymethyl)cyclobutyl)-2-methyl-5-((2-(trifluoromethyl)pyridin-3-yl)methoxy)benzofuran-3-carboxamide], under setting [1], the half-maximal inhibitory concentration (IC50) is less than 1 µM.
Take `Cc1oc2ccc(OCc3nccn3C)cc2c1C(=O)NC1CNCCC1(F)F` (single isomer, unassigned) [cpd 635-En 1]: under setting [5], the IC50 was less than 1 µM.
Under setting [1], `Cc1ncsc1COc1cc2c(C(=O)NC3(CO)CCOCC3)c(C)oc2cc1F` [compound 182, 6-fluoro-N-(4-(hydroxymethyl)tetrahydro-2H-pyran-4-yl)-2-methyl-5-((4-methylthiazol-5-yl)methoxy)benzofuran-3-carboxamide] yielded a half-maximal inhibitory concentration (IC50) of less than 1 µM.
Molecule `Cc1oc2ccc(OCc3cccnc3N3CCC3)cc2c1C(=O)NC1CCNCC1(F)F` (single isomer, unassigned) [cpd 336-En 1] had an IC50 (PS 50 μM, cpds 300-399) of less than 1 µM.
Under setting [2], `Cc1oc2ccc(OCc3cccnc3O)cc2c1C(=O)NC1CCNCC1(F)F` (single isomer, unassigned) [cpd 564-En 1] yielded an IC50 of less than 1 µM.
For `Cc1ncsc1COc1ccc2oc(C)c(C(=O)NC3(C(F)F)CCC3)c2c1` [compound 721, N-(1-(Difluoromethyl)cyclobutyl)-2-methyl-5-((4-methylthiazol-5-yl)methoxy)benzofuran-3-carboxamide], the IC50 under setting [4] was less than 1 µM.
`Cc1oc2ccc(OCc3cccnc3C3CC3)cc2c1C(=O)N[C@@H](CO)C(N)=O` [compound 702, (S)-N-(1-Amino-3-hydroxy-1-oxopropan-2-yl)-5-((2-cyclopropylpyridin-3-yl)methoxy)-2-methylbenzofuran-3-carboxamide] returned an IC50 under setting [4] of less than 1 µM.
In turn, `Cc1oc2ccc(OCc3cncc(C(F)(F)F)c3)cc2c1C(=O)NC1CCNCC1(F)F` (stereo not shown) [compound 075, N-(3,3-difluoropiperidin-4-yl)-2-methyl-5-((5-(trifluoromethyl)pyridin-3-yl)methoxy)benzofuran-3-carboxamide] displayed an IC50 under setting [1] of more than 20 µM.
In turn, `Cc1ncsc1COc1ccc2oc(C)c(C(=O)NC(CO)C(F)(F)F)c2c1` (single isomer, unassigned) [cpd 316-En 1] displayed an IC50 (PS 50 μM, cpds 300-399) of less than 1 µM.
On to `Cc1oc2ccc(OCc3ccc(OCCO)cn3)cc2c1C(=O)NC1CCNCC1(F)F` (single isomer, unassigned) [cpd 567-En 1], for which the IC50 under setting [2] is more than 20 µM.
Consider `Cc1ncsc1COc1ccc2oc(C)c(C(=O)NCC(F)(F)F)c2c1` [compound 666, 2-methyl-5-((4-methylthiazol-5-yl)methoxy)-N-(2,2,2-trifluoroethyl)benzofuran-3-carboxamide], for which, under setting [5], the IC50 was less than 1 µM.
Consider `Cc1oc2ccc(OCc3nccn3C)cc2c1C(=O)NC1CNCC1(F)F` (single isomer, unassigned) [cpd 638-En 2], for which the IC50 under setting [5] was 1 to 20 µM.
Under setting [3], `Cc1oc2ccc(OCc3ccccn3)cc2c1C(=O)N[C@H](C)CO` [compound 493, (R)-N-(1-hydroxypropan-2-yl)-2-methyl-5-(pyridin-2-ylmethoxy)benzofuran-3-carboxamide] had a 50% inhibitory concentration (IC50) of less than 1 µM.
On to `Cc1cnn(C)c1COc1ccc2oc(C)c(C(=O)N[C@@H](CO)C(N)=O)c2c1` [compound 668, (S)-N-(1-Amino-3-hydroxy-1-oxopropan-2-yl)-5-((1,4-dimethyl-1H-pyrazol-5-yl)methoxy)-2-methylbenzofuran-3-carboxamide], for which the IC50 under setting [4] was less than 1 µM.
For `Cc1cc2oc(C)c(C(=O)NC3CCNCC3(F)F)c2cc1OCc1cccnc1C(F)(F)F` (single isomer, unassigned) [179-En 2, N-(3,3-difluoropiperidin-4-yl)-2,6-dimethyl-5-((2-(trifluoromethyl)pyridin-3-yl)methoxy)benzo-furan-3-carboxamide], under setting [1], the concentration for half-maximal inhibition (IC50) was more than 20 µM.
